Laboratory results reported in the NIST ThermoML archive (doi:10.1016/j.tca.2006.08.007).
± gives the expanded uncertainty stated by the source.

What was measured:
[1] = 293.15 K; 101.33 kPa; Liquid; Vibrating tube method
[2] = refractive index (Na D-line) (dimensionless); details: 293.15 K; 101.33 kPa; Liquid; refractometer

mass density [1]	refractive index [2]	Structure (SMILES)
782.5 ± 0.2 kg/m3	1.3442 ± 0.0001	CC#N [acetonitrile]
815.1 ± 0.5 kg/m3	1.4098 ± 0.0003	CCCCCO [pentan-1-ol]
818.7 ± 0.3 kg/m3	1.418 ± 0.0002	CCCCCCO [hexan-1-ol]
